Assay results from patent US20100266694A1, “Chitosan/Carbon Nanotube Composite Scaffolds for Drug Delivery” (priority 2009, published 2010).

Experiments:
[1] = tested on: Staphylococcus aureus; experiment: Turbidity test of vancomycin eluates for bactericidal activity; format: cell-based; details: vancomycin eluates from constructs against Staphylococcus aureus
Description: (§1) Eluates taken from constructs of these different types were tested for bactericidal activity in turbidity tests against appropriate strains of bacteria: amikacin eluates against Pseudomonas aeruginosa and vancomycin eluates against Staphylococcus aureus. Eluates were added to trypticase soy broth in a 1:10 dilution. Broth was then inoculated with bacteria and then incubated overnight at 37° C. Absorbance of these solutions (turbidity) was used as an indicator of bacterial growth. Percent inhibition of bacterial growth is calculated from these measurements.

[2] = tested on: Pseudomonas aeruginosa; experiment: Turbidity test of amikacin eluates for bactericidal activity; format: cell-based; details: amikacin eluates from constructs against Pseudomonas aeruginosa
Description: as §1

Structure (SMILES) | time up to which elution is inhibitory [1] | time up to which elution is inhibitory [2]
CN[C@H](CC(C)C)C(=O)N[C@H]1C(=O)N[C@@H](CC(N)=O)C(=O)N[C@H]2C(=O)N[C@H]3C(=O)N[C@H](C(=O)N[C@H](C(=O)O)c4cc(O)cc(O)c4-c4cc3ccc4O)[C@H](O)c3ccc(c(Cl)c3)Oc3cc2cc(c3O[C@@H]2O[C@H](CO)[C@@H](O)[C@H](O)[C@H]2O[C@H]2C[C@](C)(N)[C@H](O)[C@H](C)O2)Oc2ccc(cc2Cl)[C@H]1O [vancomycin] | up to 48 hours | 
NCC[C@H](O)C(=O)N[C@@H]1C[C@H](N)[C@@H](O[C@H]2O[C@H](CN)[C@@H](O)[C@H](O)[C@H]2O)[C@H](O)[C@H]1O[C@H]1O[C@H](CO)[C@@H](O)[C@H](N)[C@H]1O [amikacin] |  | up to 24 hours
